This note sets out measurements from ChEMBL document CHEMBL5653631, “A Potent and Selective ULK1 Inhibitor Suppresses Autophagy and Sensitizes Cancer Cells to Nutrient Stress” (iScience, 2018).

pIC50: −log10 of the molar value.

In test [1] the target is T1, Serine/threonine-protein kinase ULK1 (Homo sapiens) (UniProt O75385).
T1 sequence (whole entry): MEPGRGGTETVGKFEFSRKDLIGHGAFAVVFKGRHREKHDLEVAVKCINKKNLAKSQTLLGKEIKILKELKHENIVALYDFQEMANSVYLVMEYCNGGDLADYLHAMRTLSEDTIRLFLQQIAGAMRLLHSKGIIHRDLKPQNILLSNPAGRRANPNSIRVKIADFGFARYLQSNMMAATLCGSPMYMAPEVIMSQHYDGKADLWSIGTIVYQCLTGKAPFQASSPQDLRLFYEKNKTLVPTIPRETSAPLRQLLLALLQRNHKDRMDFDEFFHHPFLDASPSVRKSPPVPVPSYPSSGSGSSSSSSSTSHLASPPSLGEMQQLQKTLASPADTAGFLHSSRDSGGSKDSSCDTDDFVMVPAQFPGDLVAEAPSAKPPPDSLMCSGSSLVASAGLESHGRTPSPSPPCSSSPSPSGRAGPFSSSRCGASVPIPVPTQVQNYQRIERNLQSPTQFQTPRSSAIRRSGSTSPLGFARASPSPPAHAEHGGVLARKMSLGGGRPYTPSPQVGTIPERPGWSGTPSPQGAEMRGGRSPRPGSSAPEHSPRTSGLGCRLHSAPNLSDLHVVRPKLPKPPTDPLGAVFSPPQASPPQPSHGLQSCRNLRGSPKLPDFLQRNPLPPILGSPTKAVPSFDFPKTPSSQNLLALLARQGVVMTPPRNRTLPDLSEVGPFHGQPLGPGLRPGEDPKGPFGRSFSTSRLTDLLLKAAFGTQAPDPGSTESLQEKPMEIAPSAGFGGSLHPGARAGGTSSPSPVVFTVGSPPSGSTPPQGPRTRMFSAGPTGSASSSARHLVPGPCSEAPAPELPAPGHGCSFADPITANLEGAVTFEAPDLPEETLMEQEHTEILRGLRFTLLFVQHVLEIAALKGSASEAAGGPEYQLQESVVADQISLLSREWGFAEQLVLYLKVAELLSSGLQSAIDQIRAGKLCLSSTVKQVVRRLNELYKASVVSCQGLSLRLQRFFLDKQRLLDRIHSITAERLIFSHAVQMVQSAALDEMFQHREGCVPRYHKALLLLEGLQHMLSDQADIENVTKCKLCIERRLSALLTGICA
Description: Inhibition of ULK1 phosphorylation at Ser15 residue in HEK293 cells incubated for 1 hr by chemiluminescence based immunoblotting analysis. The class given is cell-based. The settings on record: HEK293T, dose <= 20.0 µM.

Test [2] concerns the target Dual specificity protein kinase CLK4 (Homo sapiens) (UniProt Q9HAZ1). Description: Inhibition of human recombinant CLK4 at 40 nM related to control ULK1.
Test [3] concerns the target T2, Serine/threonine-protein kinase ULK2 (Homo sapiens, UniProt Q8IYT8).
T2 sequence (Q8IYT8 whole entry): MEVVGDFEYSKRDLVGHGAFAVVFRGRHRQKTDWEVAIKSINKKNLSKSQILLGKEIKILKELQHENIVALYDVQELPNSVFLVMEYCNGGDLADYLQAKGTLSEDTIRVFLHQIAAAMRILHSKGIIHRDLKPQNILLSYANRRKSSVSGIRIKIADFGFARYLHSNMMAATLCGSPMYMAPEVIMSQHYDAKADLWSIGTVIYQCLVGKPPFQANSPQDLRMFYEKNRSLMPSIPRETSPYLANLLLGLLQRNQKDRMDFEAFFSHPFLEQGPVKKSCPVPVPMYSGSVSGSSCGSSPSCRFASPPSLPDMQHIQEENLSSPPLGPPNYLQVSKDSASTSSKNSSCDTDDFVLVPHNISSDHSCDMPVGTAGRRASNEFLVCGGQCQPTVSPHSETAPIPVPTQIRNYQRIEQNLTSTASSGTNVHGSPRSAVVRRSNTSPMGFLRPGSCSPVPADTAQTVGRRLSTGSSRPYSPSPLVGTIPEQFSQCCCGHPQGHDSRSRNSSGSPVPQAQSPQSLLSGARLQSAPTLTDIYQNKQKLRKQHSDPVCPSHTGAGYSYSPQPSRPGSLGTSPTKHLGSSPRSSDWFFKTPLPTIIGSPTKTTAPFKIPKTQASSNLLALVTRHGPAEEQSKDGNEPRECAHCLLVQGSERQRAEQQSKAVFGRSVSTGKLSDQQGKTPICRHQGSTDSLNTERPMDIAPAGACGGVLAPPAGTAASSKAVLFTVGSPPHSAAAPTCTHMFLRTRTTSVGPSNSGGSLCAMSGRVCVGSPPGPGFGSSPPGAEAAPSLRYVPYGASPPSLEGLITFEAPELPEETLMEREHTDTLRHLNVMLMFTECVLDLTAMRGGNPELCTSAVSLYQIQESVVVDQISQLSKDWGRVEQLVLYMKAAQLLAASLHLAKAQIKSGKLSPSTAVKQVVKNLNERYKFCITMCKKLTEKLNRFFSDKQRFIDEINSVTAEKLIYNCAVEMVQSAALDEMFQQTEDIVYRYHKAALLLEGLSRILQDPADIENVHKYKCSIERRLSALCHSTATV
Briefly: Inhibition of human ULK2.

Test [4] addresses Serine/threonine-protein kinase Nek4 (Homo sapiens) (UniProt P51957). Briefly: Inhibition of human recombinant NEK4 at 40 nM related to control ULK1.

Dual specificity protein kinase CLK4 (Homo sapiens), sequence (Q9HAZ1 whole entry, looked up): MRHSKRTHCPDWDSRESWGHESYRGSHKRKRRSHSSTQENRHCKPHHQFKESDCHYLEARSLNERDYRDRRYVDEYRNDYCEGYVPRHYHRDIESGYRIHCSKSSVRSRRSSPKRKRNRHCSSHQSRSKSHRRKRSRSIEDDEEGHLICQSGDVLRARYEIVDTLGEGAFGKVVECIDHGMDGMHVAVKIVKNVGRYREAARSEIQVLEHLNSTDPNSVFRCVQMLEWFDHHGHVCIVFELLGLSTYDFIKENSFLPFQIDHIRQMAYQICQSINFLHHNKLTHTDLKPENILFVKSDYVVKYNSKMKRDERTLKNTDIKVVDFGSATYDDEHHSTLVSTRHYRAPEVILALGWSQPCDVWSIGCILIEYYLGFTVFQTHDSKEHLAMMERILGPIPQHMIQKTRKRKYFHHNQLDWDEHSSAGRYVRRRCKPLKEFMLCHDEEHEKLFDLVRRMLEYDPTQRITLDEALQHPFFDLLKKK
Serine/threonine-protein kinase Nek4 (Homo sapiens), sequence (P51957 whole entry, looked up): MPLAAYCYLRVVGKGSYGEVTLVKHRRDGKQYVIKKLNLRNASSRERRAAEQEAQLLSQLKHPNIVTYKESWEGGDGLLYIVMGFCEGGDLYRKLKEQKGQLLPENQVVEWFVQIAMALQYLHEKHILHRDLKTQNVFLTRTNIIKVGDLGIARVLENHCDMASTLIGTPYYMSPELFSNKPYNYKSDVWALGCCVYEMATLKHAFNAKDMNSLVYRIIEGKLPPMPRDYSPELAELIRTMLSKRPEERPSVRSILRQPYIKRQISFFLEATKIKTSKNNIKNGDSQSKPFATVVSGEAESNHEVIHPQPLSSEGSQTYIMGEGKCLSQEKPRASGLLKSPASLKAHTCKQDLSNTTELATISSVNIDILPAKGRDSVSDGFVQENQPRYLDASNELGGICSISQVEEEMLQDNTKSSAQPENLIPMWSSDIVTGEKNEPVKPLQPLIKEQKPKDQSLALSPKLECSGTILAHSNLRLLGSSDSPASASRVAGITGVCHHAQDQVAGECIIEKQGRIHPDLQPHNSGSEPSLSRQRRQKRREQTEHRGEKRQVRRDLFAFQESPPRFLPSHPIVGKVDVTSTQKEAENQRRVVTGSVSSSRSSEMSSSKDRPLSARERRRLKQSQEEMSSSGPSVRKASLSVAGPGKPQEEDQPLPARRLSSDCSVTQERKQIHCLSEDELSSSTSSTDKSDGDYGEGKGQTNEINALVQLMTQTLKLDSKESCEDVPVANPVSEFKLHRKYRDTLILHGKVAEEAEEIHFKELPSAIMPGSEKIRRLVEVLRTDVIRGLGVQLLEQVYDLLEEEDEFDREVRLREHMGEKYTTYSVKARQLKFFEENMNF

The term pIC50 denotes the negative decadic logarithm of the IC50, by convention in mol/L. With `O=C(N[C@@H](C1CC1)C(F)(F)F)c1cc(-c2cnn3cc(-c4ccc(F)cc4)cnc23)cs1`, the inhibition entry in test [1] is “Dose-Dependent Effect”. Further, the fold change (FC) stood at 0.71 in test [2] and 0.05 in test [4]. Further, in test [3], the negative logarithm of the IC50 (pIC50) is 7.52.

`CNC(=O)c1ccccc1Oc1nc(Nc2cc(OC)c(OC)c(OC)c2)ncc1Br`: the inhibition entry in test [1] is “Dose-Dependent Effect”. For the same molecule, in test [3], the negative logarithm of the IC50 (pIC50) is 6.67.

Consider `CC(C)[C@H](NC(=O)c1cc(-c2cnn3cc(-c4ccc(OCCN5CCCCC5)cc4)cnc23)cs1)C(F)(F)F`, for which the inhibition entry in test [1] is “Dose-Dependent Effect”. For the same molecule, the negative-log IC50 (pIC50) in test [3] was 8.59.
